Reference: patent publication US10251889B2, “Substituted pyrazolo[1,5-a]pyrimidine compounds as Trk kinase inhibitors” (Array BioPharma, Inc., priority 2009, dated 2019)

Each compound was assayed against Jak2 (human Jak2 kinase domain, amino acids 808-1132) (Homo sapiens (Human), UniProt O60674) (assay: Jak2 inhibition assay (Omnia kinase assay)). Details: read-out: Jak2 Enzyme (% inhibition at 1000 nM), Table 1; 1000 nM test compound.
Type: biochemical
Procedure: The assays described in Examples C, D, E and F for the determination of JAK1, JAK2, JAK3 and Tyk2 kinase activity, respectively, utilized the Omnia® Kinase fluorescence peptide substrate-based technology (Invitrogen). […] The reactions were therefore read at excitation 360 nm and emission was measured at 485 nm every 50 seconds for 45 minutes using a PerkinElmer EnVision Multilabel Plate Reader.
The final buffer conditions for each of the JAK1, JAK2, JAK3 and Tyk2 assays were as follows: 25 mM HEPES, pH 7.4, 10 mM MgCl2, 0.01% Triton X-100 and 1 mM DTT.
Two-μL aliquots of these were transferred to a fresh plate for a ten-fold intermediate dilution with assay buffer. Five-μL aliquots of the diluted compounds were then transferred to 20-μL of assay mixtures described in Examples C, D, E and F for a final concentration of DMSO of 2%. […] For each plate, percent of control (POC) values were calculated for each well according to the following equation:
where Xmax=Average Uninhibited Controls • Xmin=Average Background IC50's were estimated from the POC's using a standard 4-parameter logistic model:
where A=Minimum Y (Bottom Asymptote) • B=Maximum Y (Top Asymptote) • C=EC50 • D=Slope Factor • X=Compound Concentration (nM) • Y=POC
The IC50 is defined as the concentration of inhibitor at which the POC equals 50 for the fitted curve.
Compounds of Formula I were screened for their ability to inhibit Jak2 using the general enzyme inhibition assay method, in which the assay mixture contained 500 μM ATP, 10 μM Omnia® Y7 peptide (Catalog # IVGN KNZ3071C, Invitrogen Corporation, Carlsbad, Calif.) and 4 nM Jak2 in a total volume of 20 μL. Human Jak2 kinase domain comprising amino acids 808-1132 was purchased from Invitrogen Corporation, Carlsbad, Calif. (catalog # IVGN PV4210).

Chain of Jak2 (human Jak2 kinase domain, amino acids 808-1132) (O60674 808-1132): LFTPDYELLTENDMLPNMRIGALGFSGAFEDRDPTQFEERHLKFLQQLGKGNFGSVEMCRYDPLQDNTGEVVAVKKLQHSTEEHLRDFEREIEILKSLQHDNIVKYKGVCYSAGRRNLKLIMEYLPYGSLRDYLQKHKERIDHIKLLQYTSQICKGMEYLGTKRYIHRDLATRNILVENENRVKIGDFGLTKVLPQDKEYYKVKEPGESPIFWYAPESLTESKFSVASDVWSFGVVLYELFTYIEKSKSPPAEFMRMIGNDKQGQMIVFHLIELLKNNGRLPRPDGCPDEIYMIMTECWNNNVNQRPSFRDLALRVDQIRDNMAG

Structure (SMILES) | inhibition at 1 µM [%]
CC1(C)OCC(COc2ccc(F)cc2[C@H]2CCCN2c2ccn3ncc(C(=O)NC4CC4)c3n2)O1 (stereo partly drawn) [Example 204, N-cyclopropyl-5-((2R)-2-(2-((2,2-dimethyl-1,3-dioxolan-4-yl)methoxy)-5-fluorophenyl)pyrrolidin-1-yl)pyrazolo[1,5-a]pyrimidine-3-carboxamide] | 37
Cc1ncc(F)cc1[C@H]1CCCN1c1ccn2ncc(C(=O)NC[C@@H](C)O)c2n1 [Example 189, (R)-5-(2-(5-fluoro-2-methylpyridin-3-yl)pyrrolidin-1-yl)-N-((R)-2-hydroxypropyl)pyrazolo[1,5-a]pyrimidine-3-carboxamide] | 4.6
COc1ncc(F)cc1[C@H]1CCCN1c1ccn2ncc(C(=O)N3CC(C)(O)C3)c2n1 [Example 147, (R)-(5-(2-(5-fluoro-2-methoxypyridin-3-yl)pyrrolidin-1-yl)pyrazolo[1,5-a]pyrimidin-3-yl)(3-hydroxy-3-methylazetidin-1-yl)methanone] | 0.9
CC(C)NC(=O)c1cnn2ccc(N3C[C@@H](O)C[C@@H]3c3cccc(F)c3)nc12 [Example 217, 5-((2R,4S)-2-(3-fluorophenyl)-4-hydroxypyrrolidin-1-yl)-N-isopropylpyrazolo[1,5-a]pyrimidine-3-carboxamide] | 61.7
C[C@H](CO)NC(=O)c1cnn2ccc(N3CCC[C@@H]3c3cncc(F)c3)nc12 [Example 115, 5-((R)-2-(5-fluoropyridin-3-yl)pyrrolidin-1-yl)-N-((R)-1-hydroxypropan-2-yl)pyrazolo[1,5-a]pyrimidine-3-carboxamide] | 12.6
CCc1ncc(F)cc1[C@H]1CCCN1c1ccn2ncc(C(=O)N[C@H]3CC[C@H](O)CC3)c2n1 [Example 199, 5-((R)-2-(2-ethyl-5-fluoropyridin-3-yl)pyrrolidin-1-yl)-N-((trans)-4-hydroxycyclohexyl)pyrazolo[1,5-a]pyrimidine-3-carboxamide] | 38.8
Cn1cc(F)cc([C@H]2CCCN2c2ccn3ncc(C(=O)NC(C)(C)C)c3n2)c1=O [Example 226, (R)—N-tert-butyl-5-(2-(5-fluoro-1-methyl-2-oxo-1,2-dihydropyridin-3-yl)pyrrolidin-1-yl)pyrazolo[1,5-a]pyrimidine-3-carboxamide] | 100
C[C@@H](NC(=O)c1cnn2ccc(N3[C@H](CO)CC[C@@H]3c3cncc(F)c3)nc12)C(F)(F)F [Example 212, 5-((2R,5S)-2-(5-fluoropyridin-3-yl)-5-(hydroxymethyl)pyrrolidin-1-yl)-N—((R)-1,1,1-trifluoropropan-2-yl)pyrazolo[1,5-a]pyrimidine-3-carboxamide] | 14.2
O=C(c1cnn2ccc(N3CCC[C@@H]3c3cncc(F)c3)nc12)N1CCCCC1 [Example 137, (R)-(5-(2-(5-fluoropyridin-3-yl)pyrrolidin-1-yl)pyrazolo[1,5-a]pyrimidin-3-yl)(piperidin-1-yl)methanone] | 3.6
C[C@@H](CO)NC(=O)c1cnn2ccc(N3CCC[C@@H]3c3cncc(F)c3)nc12 [Example 116, 5-((R)-2-(5-fluoropyridin-3-yl)pyrrolidin-1-yl)-N-((S)-1-hydroxypropan-2-yl)pyrazolo[1,5-a]pyrimidine-3-carboxamide] | 4.7
CNC(=O)c1cnn2ccc(N3CCC[C@@H]3c3cc(F)cnc3C)nc12 [Example 186, (R)-5-(2-(5-fluoro-2-methylpyridin-3-yl)pyrrolidin-1-yl)-N-methylpyrazolo[1,5-a]pyrimidine-3-carboxamide] | 10.5
CNC(=O)c1cnn2ccc(N3C[C@H](O)C[C@@H]3c3cccc(F)c3)nc12 [Example 43, 5-((2R,4R)-2-(3-fluorophenyl)-4-hydroxypyrrolidin-1-yl)-N-methylpyrazolo[1,5-a]pyrimidine-3-carboxamide] | 4.2
CC1(NC(=O)c2cnn3ccc(N4CCC[C@@H]4c4cncc(F)c4)nc23)CCC1 [Example 102, (R)-5-(2-(5-fluoropyridin-3-yl)pyrrolidin-1-yl)-N-(1-methylcyclobutyl)pyrazolo[1,5-a]pyrimidine-3-carboxamide] | 17.3
CONC(=O)c1cnn2ccc(N3CCC[C@@H]3c3cncc(F)c3)nc12 [Example 73, (R)-5-(2-(5-fluoropyridin-3-yl)pyrrolidin-1-yl)-N-methoxypyrazolo[1,5-a]pyrimidine-3-carboxamide] | 4.9
COc1ncc(F)cc1[C@H]1CCCN1c1ccn2ncc(C(=O)NC[C@H](O)CO)c2n1 [Example 143, N—((S)-2,3-dihydroxypropyl)-5-((R)-2-(5-fluoro-2-methoxypyridin-3-yl)pyrrolidin-1-yl)pyrazolo[1,5-a]pyrimidine-3-carboxamide] | 7

More lines, now with the values ahead:

inhibition at 1 µM [%] | Structure (SMILES)
72.7 | COc1ccc(F)cc1[C@H]1CCCN1c1ccn2ncc(C(=O)NC3CC3)c2n1 [Example 48, (R)—N-cyclopropyl-5-(2-(5-fluoro-2-methoxyphenyl)pyrrolidin-1-yl)pyrazolo[1,5-a]pyrimidine-3-carboxamide]
33.1 | COCCOc1ccc(F)cc1[C@H]1CCCN1c1ccn2ncc(C(N)=O)c2n1 [Example 89, (R)-5-(2-(5-fluoro-2-(2-methoxyethoxy)phenyl)pyrrolidin-1-yl)pyrazolo[1,5-a]pyrimidine-3-carboxamide]
22.2 | CC(C)(C)NC(=O)c1cnn2ccc(N3CCC[C@@H]3c3cccc(F)c3)nc12 [Example 36, (R)—N-tert-butyl-5-(2-(3-fluorophenyl)pyrrolidin-1-yl)pyrazolo[1,5-a]pyrimidine-3-carboxamide]
90 | O=C(N[C@H]1CC[C@H](O)CC1)c1cnn2ccc(N3CCC[C@@H]3c3cc(F)ccc3F)nc12 [Example 7, 5-((R)-2-(2,5-difluorophenyl)pyrrolidin-1-yl)-N-((trans)-4-hydroxycyclohexyl)pyrazolo[1,5-a]pyrimidine-3-carboxamide]
25.5 | CC(C)NC(=O)c1cnn2ccc(N3[C@@H](c4cncc(F)c4)CC[C@@]3(C)CO)nc12 [Example 219, 5-((2 S, 5R)-5-(5-fluoropyridin-3-yl)-2-(hydroxymethyl)-2-methylpyrrolidin-1-yl)-N-isopropylpyrazolo[1,5-a]pyrimidine-3-carboxamide]
11.5 | O=C(NCCN1CCNC1=O)c1cnn2ccc(N3CCC[C@@H]3c3cc(F)ccc3F)nc12 [Example 24, (R)-5-(2-(2,5-difluorophenyl)pyrrolidin-1-yl)-N-(2-(2-oxoimidazolidin-1-yl)ethyl) pyrazole[1,5-a]pyrimidine-3-carboxamide]
22.3 | CC1(C)CC[C@H](c2cc(F)ccc2F)N1c1ccn2ncc(C(N)=O)c2n1 [Example 67, (R)-5-(5-(2,5-difluorophenyl)-2,2-dimethylpyrrolidin-1-yl)pyrazolo[1,5-a]pyrimidine-3-carboxamide]
9.9 | O=C(NC[C@@H](O)CO)c1cnn2ccc(N3CCC[C@@H]3c3cc(F)ccc3F)nc12 [Example 26, 5-((R)-2-(2,5-difluorophenyl)pyrrolidin-1-yl)-N—((R)-2,3-dihydroxypropyl)pyrazolo[1,5-a]pyrimidine-3-carboxamide]
4.6 | CC(C)(CN1CCOCC1)NC(=O)c1cnn2ccc(N3CCC[C@@H]3c3cc(F)ccc3F)nc12 [Example 9, (R)-5-(2-(2,5-difluorophenyl)pyrrolidin-1-yl)-N-(2-methyl-1-morpholinopropan-2-yl)pyrazolo[1,5-a]pyrimidine-3-carboxamide]
-0.8 | CC(C)(C)[C@@H](CO)NC(=O)c1cnn2ccc(N3CCC[C@@H]3c3cc(F)ccc3F)nc12 [Example 180, 5-((R)-2-(2,5-difluorophenyl)pyrrolidin-1-yl)-N-((S)-1-hydroxy-3,3-dimethylbutan-2-yl)pyrazolo[1,5-a]pyrimidine-3-carboxamide]
-0.2 | CC(C)[C@@H](CO)NC(=O)c1cnn2ccc(N3CCC[C@@H]3c3cc(F)ccc3F)nc12 [Example 179, 5-((R)-2-(2,5-difluorophenyl)pyrrolidin-1-yl)-N-((S)-1-hydroxy-3-methylbutan-2-yl)pyrazolo[1,5-a]pyrimidine-3-carboxamide]
25.7 | CC(C)(CO)NC(=O)c1cnn2ccc(N3CCC[C@@H]3c3cc(F)ccc3F)nc12 [Example 8, (R)-5-(2-(2,5-difluorophenyl)pyrrolidin-1-yl)-N-(1-hydroxy-2-methylpropan-2-yl)pyrazolo[1,5-a]pyrimidine-3-carboxamide]
14.2 | Cc1ccc(CNC(=O)c2cnn3ccc(N4CCC[C@@H]4c4cc(F)ccc4F)nc23)o1 [Example 5, (R)-5-(2-(2,5-difluorophenyl)pyrrolidin-1-yl)-N-((5-methylfuran-2-yl)methyl)pyrazolo[1,5-a]pyrimidine-3-carboxamide]
